In patent US8871934B2, “Fluorene compound and pharmaceutical use thereof” (Japan Tobacco Inc., priority 2008, dated 2014):
Read-outs that look alike come from different tables or passages of the source.

Biological target: human PDHK2 (hPDHK2) (Homo sapiens (Human), UniProt Q15119)
Assay: Inhibitory action of PDHK activity in vitro (kinase reaction, residual PDH activity measured)
Assay type: biochemical
[1] = PDHK inhibitory activity, class symbol of IC50
[2] = read-out: PDHK inhibitory activity IC50
[3] = class symbol of IC50, read-out: PDHK inhibitory activity

Row | Compound | IC50 [1] | IC50 [2] | IC50 [3]
1 | CC(C)(C)Cn1cc(-c2cccc3c2-c2ccccc2C3(O)C(F)(F)F)cn1 (stereo not drawn) [compound 524] | < 100 nM | 87 nM | 
2 | OC1(C(F)(F)F)c2ccccc2-c2c(Cl)cc(F)cc21 (stereo not drawn) [compound 525] | 100 to 1000 nM | 677 nM | 
3 | CC(=O)NCCn1cc(-c2cccc3c2-c2ccccc2C3(O)C(F)(F)F)cn1 (stereo not drawn) [compound 527] | < 100 nM | 79 nM | 
4 | CC(C)n1cc(-c2cc(C(N)=O)c3c(c2)C(O)(C(F)(F)F)c2ccccc2-3)cn1 (stereo not drawn) [compound 528] | < 100 nM | 49 nM | 
5 | CCn1cc(-c2cc(C(N)=O)c3c(c2)C(O)(C(F)(F)F)c2ccccc2-3)cn1 (stereo not drawn) [compound 530] | < 100 nM | 43 nM | 
6 | CC(=O)N(C)CCn1cc(-c2cccc3c2-c2ccccc2C3(O)C(F)(F)F)cn1 (stereo not drawn) [compound 535] | 100 to 1000 nM | 197 nM | 
7 | NC(=O)c1cc(-c2cnn(CCO)c2)cc2c1-c1ccccc1C2(O)C(F)(F)F (stereo not drawn) [compound 536] | < 100 nM | 54 nM | 
8 | OC12CC3CC(C1)CC(Cn1cc(-c4cccc5c4-c4ccccc4C5(O)C(F)(F)F)cn1)(C3)C2 (stereo not drawn) [compound 547] | < 100 nM | 62 nM | 
9 | Cc1nn(C)c(C)c1-c1ccc2c(c1)C(O)(C(F)(F)F)c1ccccc1-2 (stereo not drawn) [compound 555] |  | > 1000 nM | > 1000 nM
10 | O=C(c1cc(CO)c2c(c1)C(O)(C(F)(F)F)c1ccccc1-2)N1CCC1 (stereo not drawn) [compound 556] | < 100 nM | 53 nM | 
11 | Cn1cc(-c2cc(CO)cc3c2-c2ccccc2C3(O)C(F)(F)F)cn1 (stereo not drawn) [compound 557] | < 100 nM | 77 nM | 
12 | Cn1cc(-c2cc(N3CCC(C(=O)O)CC3)cc3c2-c2ccccc2C3(O)C(F)(F)F)cn1 (stereo not drawn) [compound 558] | < 100 nM | 81 nM | 
13 | OC1(C(F)(F)F)c2ccccc2-c2ccc(Cn3cccn3)cc21 (stereo not drawn) [compound 559] |  | > 1000 nM | > 1000 nM
14 | OC1(C(F)(F)F)c2ccccc2-c2ccc(-n3cccn3)cc21 (stereo not drawn) [compound 560] | 100 to 1000 nM | 970 nM | 
15 | Cn1cc(-c2cnc3c(c2)C(O)(C(F)(F)F)c2ccccc2-3)cn1 (stereo not drawn) [compound 562] | < 100 nM | 59 nM | 
16 | OCCn1cc(-c2cnc3c(c2)C(O)(C(F)(F)F)c2ccccc2-3)cn1 (stereo not drawn) [compound 563] | < 100 nM | 63 nM | 
17 | Cn1cc(-c2cc(O)cc3c2-c2ccccc2C3(O)C(F)(F)F)cn1 (stereo not drawn) [compound 564] | 100 to 1000 nM | 105 nM | 
18 | Cc1nn(C)c(C)c1-c1cccc2c1-c1ccccc1C2(O)C(F)(F)F (stereo not drawn) [compound 567] |  | > 1000 nM | > 1000 nM
19 | O=C(O)CCn1cc(-c2cnc3c(c2)C(O)(C(F)(F)F)c2ccccc2-3)cn1 (stereo not drawn) [compound 568] | < 100 nM | 83 nM | 
20 | Cn1cc(-c2cc(N3CCOCC3)cc3c2-c2ccccc2C3(O)C(F)(F)F)cn1 (stereo not drawn) [compound 569] | < 100 nM | 44 nM | 
21 | Cn1cc(-c2cc(CO)c3c(c2)C(O)(C(F)(F)F)c2ccccc2-3)cn1 (stereo not drawn) [compound 570] | 100 to 1000 nM | 110 nM | 
22 | Cn1cc(-c2cc(OCC(O)CO)cc3c2-c2ccccc2C3(O)C(F)(F)F)cn1 (stereo not drawn) [compound 571] | < 100 nM | 50 nM | 
23 | O=C(c1cc(CO)c2c(c1)C(O)(C(F)(F)F)c1ccccc1-2)N1CCCC1 (stereo not drawn) [compound 572] | 100 to 1000 nM | 109 nM | 
24 | C#Cc1cc(-c2cnn(C)c2)cc2c1-c1ccccc1C2(O)C(F)(F)F (stereo not drawn) [compound 578] | < 100 nM | 78 nM | 
25 | Cn1cc(-c2cc(-c3cnn(C)c3)c3c(c2)C(O)(C(F)(F)F)c2ccccc2-3)cn1 (stereo not drawn) [compound 579] | < 100 nM | 19 nM | 
26 | OCCn1cc(-c2cc(-c3cnn(CCO)c3)c3c(c2)C(O)(C(F)(F)F)c2ccccc2-3)cn1 (stereo not drawn) [compound 580] | < 100 nM | 21 nM | 
27 | O=C1CCCN1CCOc1cc(CO)c2c(c1)C(O)(C(F)(F)F)c1ccccc1-2 (stereo not drawn) [compound 583] | < 100 nM | 64 nM | 
